As usually defined, the IC50 is the midpoint of a concentration-inhibition curve.

This assay concerns the target T1, Human M4 (Homo sapiens, UniProt P08173).
T1 construct: expressed in transfected cells
T1 sequence (P08173 1-479): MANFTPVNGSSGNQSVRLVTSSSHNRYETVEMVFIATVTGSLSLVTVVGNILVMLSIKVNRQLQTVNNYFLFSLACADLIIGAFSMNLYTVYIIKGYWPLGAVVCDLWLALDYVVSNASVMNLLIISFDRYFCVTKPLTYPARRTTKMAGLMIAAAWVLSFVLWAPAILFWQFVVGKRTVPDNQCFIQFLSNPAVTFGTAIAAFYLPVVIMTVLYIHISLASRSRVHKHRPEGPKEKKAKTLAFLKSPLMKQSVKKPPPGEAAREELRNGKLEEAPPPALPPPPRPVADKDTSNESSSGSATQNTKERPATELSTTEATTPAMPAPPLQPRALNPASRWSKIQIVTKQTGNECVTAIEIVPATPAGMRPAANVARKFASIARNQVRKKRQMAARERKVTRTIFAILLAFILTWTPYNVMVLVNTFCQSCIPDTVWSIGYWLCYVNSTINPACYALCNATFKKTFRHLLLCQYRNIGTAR
The assay is described as follows: mAChR M4 cell-based functional assay (calcium flux, decrease of EC80 acetylcholine response). The following applies: for IC50: decrease of response to EC80 acetylcholine. On the procedure:
Human M4 cDNA, along with the chimeric G protein Gqi5, were transfected into Chinese hamster ovary (CHO-K1) cells purchased from the American Type Culture Collection using Lipofectamine2000. M4/Gqi5/CHO cells were grown in Ham's F-12 medium containing 10% heat-inactivated fetal bovine serum (FBS), 20 mM HEPES, 500 μg/mL G418 sulfate, and 200 μg/mL Hygromycin B.
For high throughput measurement of agonist-evoked increases in intracellular calcium, CHO-K1 cells stably expressing muscarinic receptors were plated in growth medium lacking G418 and hygromycin at 15,000 cells/20 μL/well in Greiner 384-well black-walled, tissue culture (TC)-treated, clear-bottom plates (VWR). Cells were incubated overnight at 37° C. and 5% CO2. The next day, cells were washed using an ELX 405 (BioTek) with assay buffer; the final volume was then aspirated to 20 μL. Next, 20 μL of a 2.3 μM stock of Fluo-4/acetoxymethyl ester (Invitrogen, Carlsbad, Calif.), prepared as a 2.3 mM stock in DMSO and mixed in a 1:1 ratio with 10% (w/v) Pluronic F-127 and diluted in assay buffer, was added to the wells and the cell plates were incubated for 50 min at 37° C. and 5% CO2. Dye was removed by washing with the ELX 405 and the final volume was aspirated to 20 μL. Compound master plates were formatted in a 10 point concentration-response curve (CRC) format (1:3 dilutions) in 100% DMSO with a starting concentration of 10 or 1 mM using a BRAVO liquid handler (Agilent). Test compound CRCs were then transferred to daughter plates (240 nL) using the Echo acoustic plate reformatter (Labcyte, Sunnyvale, Calif.) and then diluted into assay buffer (40 μL) to a 2× stock using a Thermo Fisher Combi (Thermo Fisher Scientific, Waltham, Mass.).
Calcium flux was measured using the Functional Drug Screening System (FDSS) 6000 or 7000 (Hamamatsu Corporation, Tokyo, Japan) as an increase in the fluorescent static ratio. Compounds were applied to cells (20 μL, 2×) using the automated system of the FDSS at 2 seconds into the protocol and the data were collected at 1 Hz. At 143 s, 10 μL of an EC20 concentration of the muscarinic receptor agonist acetylcholine was added (5×), followed by the addition of 12 μL of an EC80 concentration of acetylcholine at the 268 s time point (5×). Agonist activity was analyzed as a concentration-dependent increase in calcium mobilization upon compound addition. Positive allosteric modulator activity was analyzed as a concentration-dependent increase in the EC20 acetylcholine response. Antagonist activity was analyzed as a concentration-dependent decrease in the EC80 acetylcholine response; for the purposes of the tables herein, an IC50 (inhibitory concentration 50) was calculated as a concentration-dependent decrease of the response elicited by an EC80 concentration of acetylcholine. Concentration-response curves were generated using a four-parameter logistical equation in XLFit curve fitting software (HMS, Bridgewater, N.J.) for Excel (Microsoft, Redmond, Wash.) or Prism (GraphPad Software, Inc., San Diego, Calif.) or the Dotmatics software platform (Dotmatics, Bishop's Stortford, UK).
Compounds were synthesized as described above. Activity (IC50 and Emin) was determined in the inAChR M4 cell-based functional assay as described above and the data are shown in Table 2. The compound numbers correspond to the compound numbers used in Examples 1 and 2 and Tables 1 and 2.
On the technique in general: Calcium flux is commonly read through the fluorescence of an indicator in the cells.

Setting [1] is: M4/Gqi5/CHO-K1 cells, % ACh maximum at 30 μM, read-out: Emin (% ACh maximum at 30 μM).

SMILES strings stand for the structures. Read-outs that look alike come from different tables or passages of the source.

Turning to `Fc1cccc(CN2C[C@@H]3[C@H](C2)[C@H]3Nc2ccc(-c3cc(F)ccc3Cl)nn2)c1` [Compound 22, (1R,5S,6s)-N-[6-(2-chloro-5-fluoro-phenyl)pyridazin-3-yl]-3-[(3-fluorophenyl)methyl]-3-azabicyclo[3.1.0]hexan-6-amine], under setting [1], the remaining activity at 30 µM worked out at 29%.
The same measure, in the same setting: the same measure for `c1cc2c(cc1-c1ccc(N[C@H]3[C@@H]4CN(CC5CCOCC5)C[C@@H]43)nn1)OCO2` [Compound 30, (1R,5S,6s)-N-[6-(1,3-benzodioxol-5-yl)pyridazin-3-yl]-3-(tetrahydropyran-4-ylmethyl)-3-azabicyclo[3.1.0]hexan-6-amine]: 16%; for `Cc1cc(CN2C[C@@H]3[C@H](C2)[C@H]3Nc2ccc(-c3cc(F)ccc3F)nn2)nn1C` [Compound 36, (1R,5S,6s)-N-[6-(2,5-difluorophenyl)pyridazin-3-yl]-3-[(1,5-dimethylpyrazol-3-yl)methyl]-3-azabicyclo[3.1.0]hexan-6-amine]: 38%.
Take `Cc1nn(C)cc1-c1ccc(CN[C@H]2[C@@H]3CN(CCC(C)(C)C)C[C@@H]32)nn1` [Compound 4, (1R,5S,6s)-N-((6-(1,3-dimethyl-1H-pyrazol-4-yl)pyridazin-3-yl)methyl)-3-(3,3-dimethylbutyl)-3-azabicyclo[3.1.0]hexan-6-amine]: under “CHO-K1, read-out: Emin (% ACh maximum at 30 μM)”, the remaining activity at 30 µM stood at 36.7%.
On to `Fc1ccc(-c2ccc(N[C@H]3[C@@H]4CN(CC5CCOCC5)C[C@@H]43)nn2)cc1` [Compound 10, (1R,5S,6s)-N-[6-(4-fluorophenyl)pyridazin-3-yl]-3-(tetrahydropyran-4-ylmethyl)-3-azabicyclo[3.1.0]hexan-6-amine], for which the remaining activity at 30 µM under setting [1] worked out at 37%.
`Fc1ccc(CN2C[C@@H]3[C@H](C2)[C@H]3Nc2ccc(-c3cc(F)ccc3Cl)nn2)cc1` [Compound 23, (1R,5S,6s)-N-[6-(2-chloro-5-fluoro-phenyl)pyridazin-3-yl]-3-[(4-fluorophenyl)methyl]-3-azabicyclo[3.1.0]hexan-6-amine]: under setting [1], the remaining activity at 30 µM turned out to be 30%. Moreover, the IC50 (M4/Gqi5/CHO-K1 cells) was determined as 1660 nM.
In the case of `CC(C)(C)CCN1C[C@@H]2[C@H](C1)[C@H]2Nc1ccc(-c2cc(F)ccc2Cl)nn1` [Compound 27, (1R,5S,6s)-N-[6-(2-chloro-5-fluoro-phenyl)pyridazin-3-yl]-3-(3,3-dimethylbutyl)-3-azabicyclo[3.1.0]hexan-6-amine], under setting [1], the remaining activity at 30 µM turned out to be 4%. For the setting “M4/Gqi5/CHO-K1 cells”, the IC50 was found to be 25.5 nM.
For `Cc1nn(C)cc1-c1ccc(N[C@H]2[C@@H]3CN(CC(C)C(C)(C)C)C[C@@H]32)nn1` (stereo partly drawn) [Compound 3, (1R,5S,6s)-N-[6-(1,3-dimethylpyrazol-4-yl)pyridazin-3-yl]-3-(2,3,3-trimethylbutyl)-3-azabicyclo[3.1.0]hexan-6-amme], the remaining activity at 30 µM under setting [1] amounted to 24%.
Regarding `Fc1ccc(F)c(-c2ccc(N[C@H]3[C@@H]4CN(Cc5ccc6c(c5)OCO6)C[C@@H]43)nn2)c1` [Compound 35, (1R,5S,6s)-3-(1,3-benzodioxol-5-ylmethyl)-N-[6-(2,5-difluorophenyl)pyridazin-3-yl]-3-azabicyclo[3.1.0]hexan-6-amine], under setting [1], the remaining activity at 30 µM came to 36%.
`Fc1ccc(-c2ccc(N[C@H]3[C@@H]4CN(CC5CCOCC5)C[C@@H]43)nn2)c(F)c1` [Compound 32, (1R,5S,6s)-N-[6-(2,4-difluorophenyl)pyridazin-3-yl]-3-(tetrahydropyran-4-ylmethyl)-3-azabicyclo[3.1.0]hexan-6-amine]: the remaining activity at 30 µM under setting [1] came out at 40%.
With `Fc1ccc(F)c(-c2ccc(N[C@H]3[C@@H]4CN(CC5CCOCC5)C[C@@H]43)nn2)c1` [Compound 16, (1R,5S,6s)-N-[6-(2,5-difluorophenyl)pyridazin-3-yl]-3-(tetrahydropyran-4-ylmethyl)-3-azabicyclo[3.1.0]hexan-6-amine], the remaining activity at 30 µM under setting [1] was 28%.
Take `c1cnc2ccc(-c3ccc(N[C@H]4[C@@H]5CN(CC6CCOCC6)C[C@@H]54)nn3)cc2c1` [Compound 17, (1R,5S,6s)-N-[6-(6-quinolyl)pyridazin-3-yl]-3-(tetrahydropyran-4-ylmethyl)-3-azabicyclo[3.1.0]hexan-6-amine]: the remaining activity at 30 µM under setting [1] was 13%. Where the note is “M4/Gqi5/CHO-K1 cells”, the IC50 came to 3760 nM.
As for `FC(F)(F)c1ccc(-c2ccc(N[C@H]3[C@@H]4CN(CC5CCOCC5)C[C@@H]43)nn2)cn1` [Compound 20, (1R,5S,6s)-3-(tetrahydropyran-4-ylmethyl)-N-[6-[6-(trifluoromethyl)-3-pyridyl]pyridazin-3-yl]-3-azabicyclo[3.1.0]hexan-6-amine], the remaining activity at 30 µM under setting [1] was 48%.
With `CC(C)(C)CCN1C[C@@H]2[C@H](C1)[C@H]2NCc1ccc(-c2cc(F)ccc2Cl)nn1` [Compound 5, (1R,5S,6s)-N-((6-(2-chloro-5-fluoro-phenyl)pyridazin-3-yl)methyl)-3-(3,3-dimethylbutyl)-3-azabicyclo[3.1.0]hexan-6-amine], the remaining activity at 30 µM under setting [1] stood at 20.4%.
On to `Fc1ccc(Cl)c(-c2ccc(N[C@H]3[C@@H]4CN(Cc5ccccn5)C[C@@H]43)nn2)c1` [Compound 24, (1R,5S,6s)-N-[6-(2-chloro-5-fluoro-phenyl)pyridazin-3-yl]-3-(2-pyridylmethyl)-3-azabicyclo[3.1.0]hexan-6-amine], for which the remaining activity at 30 µM under setting [1] amounted to 16%. Where the note is “M4/Gqi5/CHO-K1 cells”, the IC50 came out at 6770 nM.
On to `Fc1ccc(Cl)c(-c2ccc(CN[C@H]3[C@@H]4CN(CC5CCCCC5)C[C@@H]43)nn2)c1` [Compound 6, (1R,5S,6s)-N-((6-(2-chloro-5-fluoro-phenyl)pyridazin-3-yl)methyl)-3-(cyclohexylmethyl)-3-azabicyclo[3.1.0]hexan-6-amine], for which the remaining activity at 30 µM under setting [1] amounted to 17.8%.
As for `Fc1ccc(Cl)c(-c2ccc(N[C@H]3[C@@H]4CN(CC5CCOCC5)C[C@@H]43)nn2)c1` [Compound 12, (1R,5S,6s)-N-[6-(2-chloro-5-fluoro-phenyl)pyridazin-3-yl]-3-(tetrahydropyran-4-ylmethyl)-3-azabicyclo[3.1.0]hexan-6-amine], the remaining activity at 30 µM under setting [1] was 8%. Further, for the setting “M4/Gqi5/CHO-K1 cells”, the IC50 came to 1110 nM.
Regarding `Fc1ccccc1-c1ccc(N[C@H]2[C@@H]3CN(CC4CCOCC4)C[C@@H]32)nn1` [Compound 8, (1R,5S,6s)-N-[6-(2-fluorophenyl)pyridazin-3-yl]-3-(tetrahydropyran-4-ylmethyl)-3-azabicyclo[3.1.0]hexan-6-amine], the remaining activity at 30 µM under setting [1] is 38%.
Turning to `Fc1ccc(F)c(-c2ccc(N[C@H]3[C@@H]4CN(Cc5ccccc5F)C[C@@H]43)nn2)c1` [Compound 33, (1R,5S,6s)-N-[6-(2,5-difluorophenyl)pyridazin-3-yl]-3-[(2-fluorophenyl)methyl]-3-azabicyclo[3.1.0]hexan-6-amine], under setting [1], the remaining activity at 30 µM turned out to be 39%.

The values above are taken from patent US11414406B2, “Antagonists of the muscarinic acetylcholine receptor M4” (Vanderbilt University, priority 2018, dated 2022).
